The values that follow come from ChEMBL document CHEMBL1833847, “Identification of potent c-Src inhibitors strongly affecting the proliferation of human neuroblastoma cells” (Bioorg Med Chem Lett, 2011).

Data set [1] has as its target T1, Tyrosine-protein kinase ABL1 (Homo sapiens, UniProt P00519). The data set can be described thus: Inhibition human recombinant Abl using Abtide peptide substrate at 100 uM in presence of [gamma-32P]-ATP.
The test system of data set [2] is SH-SY5Y. The data set can be described thus: Antiproliferative activity against human SH-SY5Y cells assessed as cell viability after 72 hrs by XTT assay. A general note: Tetrazolium dyes change colour on reduction, which living cells bring about.
Data set [3] in a line: Permeability of the compound at pH 7.4 after 5 hrs using porcine polar brain lipid by PAMPA-BBB assay. Type of data set: ADME. As to conditions: pig; for Papp at 5 h: PAMPA, pH 7.4, read-out: permeability.
The nature of data set [4]: Metabolic stability in human liver microsomes at 50 uM at pH 7.4 using NADPH by LC-UV-MS method. Type of data set: ADME, Microsome. As to conditions: read-out: Stability. On the technique in general: Liver microsomes are a subcellular fraction often used to study metabolism.
The nature of data set [5]: Aqueous solubility of the compound after 24 to 36 hrs by LC-MS-MS assay. As to conditions: buffer. Type of data set: physicochemical.
Data set [6] deals with SH-SY5Y. The data set can be described thus: cells. As to conditions: Homo sapiens, 72 h.
Data set [7] deals with HS27. The data set can be described thus: Antiproliferative activity against human HS27 cells assessed as retardation in proliferation rate at 10 uM after 72 hrs by XTT assay. As to conditions: hs27, 72 h. Type of data set: cell-based.
Data set [8] has as its system SH-SY5Y. Briefly: Antiproliferative activity against human SH-SY5Y cells assessed as cell viability at 0.01 to 10 uM by XTT assay. As to conditions: TDE = time-dependent effect. Format: functional, cell-based.
For data set [9], the target named is Proto-oncogene tyrosine-protein kinase Src (Homo sapiens, UniProt P12931). The data set can be described thus: Inhibition human recombinant cSRC using KVEKIGEGTYGVVYK peptide substrate in presence of [gamma-32P]-ATP.
The target of data set [10] is Serine/threonine-protein kinase pim-1 (Homo sapiens, UniProt P11309). The data set can be described thus: Inhibition human recombinant Pim1 using KKRNRLTLTV peptide substrate in presence of [gamma-32P]-ATP.
In data set [11] the target is Tyrosine-protein kinase HCK (Homo sapiens, UniProt P08631). The data set can be described thus: Inhibition human recombinant HcK using KVEKIGEGTYGVVYK peptide substrate in presence of [gamma-32P]-ATP.
Data set [12] deals with T1, Tyrosine-protein kinase ABL1.
Description: Inhibition human recombinant Abl using Abtide peptide substrate in presence of [gamma-32P]-ATP
For data set [13], the system named is SH-SY5Y. Briefly: Antiproliferative activity against human SH-SY5Y cells assessed as growth reduction at 10 uM after 72 hrs. Format: functional. Details: scale not given: the % may be the effect or the level left.
Data set [14] addresses Focal adhesion kinase 1 (Homo sapiens, UniProt Q05397).
Description: Inhibition human recombinant FAK using Poly(Glu,Tyr) substrate in presence of [gamma-32P]-ATP
Data set [15] deals with T2, Receptor-type tyrosine-protein kinase FLT3 (Homo sapiens, UniProt P36888).
T2 sequence (P36888 whole entry): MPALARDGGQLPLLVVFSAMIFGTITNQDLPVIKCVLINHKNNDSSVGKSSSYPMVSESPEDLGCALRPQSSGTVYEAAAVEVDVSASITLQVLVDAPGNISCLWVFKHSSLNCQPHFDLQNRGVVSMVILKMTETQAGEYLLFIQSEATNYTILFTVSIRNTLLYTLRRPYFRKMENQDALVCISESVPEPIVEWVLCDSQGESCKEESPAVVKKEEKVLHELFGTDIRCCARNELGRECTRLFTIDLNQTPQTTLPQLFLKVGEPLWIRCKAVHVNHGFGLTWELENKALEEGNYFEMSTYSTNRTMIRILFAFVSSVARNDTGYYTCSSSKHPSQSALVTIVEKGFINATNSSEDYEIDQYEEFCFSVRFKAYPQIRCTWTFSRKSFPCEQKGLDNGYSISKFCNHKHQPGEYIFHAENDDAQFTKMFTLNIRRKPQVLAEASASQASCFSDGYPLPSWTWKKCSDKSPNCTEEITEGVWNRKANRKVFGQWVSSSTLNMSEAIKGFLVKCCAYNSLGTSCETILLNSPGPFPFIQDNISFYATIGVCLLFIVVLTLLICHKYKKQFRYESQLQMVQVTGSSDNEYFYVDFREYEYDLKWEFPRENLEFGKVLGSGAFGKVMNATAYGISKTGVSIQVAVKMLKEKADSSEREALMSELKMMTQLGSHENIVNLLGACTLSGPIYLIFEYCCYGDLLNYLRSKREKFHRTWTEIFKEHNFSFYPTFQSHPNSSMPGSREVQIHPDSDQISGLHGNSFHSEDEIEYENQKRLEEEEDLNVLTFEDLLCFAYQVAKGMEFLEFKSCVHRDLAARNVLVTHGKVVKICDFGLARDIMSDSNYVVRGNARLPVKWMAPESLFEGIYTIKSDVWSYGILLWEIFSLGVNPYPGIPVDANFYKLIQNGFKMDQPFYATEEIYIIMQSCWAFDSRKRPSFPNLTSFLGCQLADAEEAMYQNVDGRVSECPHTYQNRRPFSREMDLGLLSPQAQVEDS
Description: Inhibition human recombinant FLT3 using Poly(Ala,Glu,Lys,Tyr)peptide substrate in presence of [gamma-32P]-ATP

Converted amounts (≈) assume the structure as drawn. The source made the active and inactive calls. The rule behind the calls is not given here.

As a reminder, the solubility is the dissolved amount per volume that the medium holds. By IC50 is commonly meant the midpoint of a concentration-inhibition curve. The term Ki denotes the dissociation constant of the complex between target and ligand, obtained from inhibition or displacement.

As to `CC(Cn1ncc2c(NCc3cccc(F)c3)ncnc21)c1ccccc1` (centres undefined), the inhibition entry in [1] was “inactive”.
In the case of `CSc1nc(Nc2cccc(Br)c2)c2cnn(CC(C)c3ccccc3)c2n1` (centres undefined), the Activity result was “Dose-dependent effect” in [2], “Toxic” in [7] and “tde” in data set [8]. This compound displayed a permeability in [3] (pampa, pH 7.4, 5 h) of 1.48 ×10⁻⁶ cm/s. Moreover, the remaining at 50 µM in [4] stood at 95%. Also, the solubility in [5] was below 0.01 µg/mL. Also, the concentration for half-maximal inhibition (IC50) in data set [6] is 800 nM.
`CC(Cn1ncc2c(NCc3ccccc3)ncnc21)c1ccccc1` (centres undefined): the inhibition result in [1] is “inactive”.
With `CC(Cn1ncc2c(NCc3ccccc3F)ncnc21)c1ccccc1` (centres undefined), in data set [1], the inhibition entry was “inactive”.
Same read-out and setting: with `CSc1nc(NCc2ccccc2)c2cnn(CC(C)c3ccccc3)c2n1` (centres undefined) the entry was “inactive”.
As for `CSc1nc(Nc2cccc(Cl)c2)c2cnn(CCc3ccccc3)c2n1`, the Ki worked out at 90 nM in [9], 6500 nM in data set [10] and 1720 nM in [11]. Besides, the Papp at 5 h in [3] stood at 3.43 ×10⁻⁶ cm/s. Moreover, the remaining at 50 µM in [4] amounted to 99%. The Activity result in data set [7] was “Toxic”; in data set [8] it was “tde”. The inhibition result in data set [1] is “inactive”.
For `ClC(Cn1ncc2c(NCc3ccccc3)ncnc21)c1ccccc1` (centres undefined), the Ki is 3000 nM in data set [9] and 370 nM in data set [12].
Take `CC(Cn1ncc2c(NCc3ccc(F)cc3)ncnc21)c1ccccc1` (centres undefined): in [1], the inhibition result was “inactive”.
Take `CSc1nc(Nc2cccc(Cl)c2)c2cnn(CC(Cl)c3ccccc3)c2n1` (centres undefined): the Ki in data set [9] came to 700 nM. The Papp at 5 h in data set [3] stood at 5.66 ×10⁻⁶ cm/s. The Activity in [13] turned out to be 75%. Besides, the remaining at 50 µM in data set [4] was 91%. Besides, the solubility in [5] was 0.046 µg/mL (≈ 0.107 µM).
As to `Clc1cccc(Nc2ncnc3c2cnn3CCc2ccccc2)c1`, the inhibition entry in data set [1] was “inactive”.
As for `CSc1nc(Nc2ccccc2)c2cnn(CC(C)c3ccccc3)c2n1` (centres undefined), the Ki is 25 nM in [9]; “Not Active” in data set [14]; “Not Active” in data set [15]; 11500 nM in data set [10]; 3870 nM in data set [11]. In data set [6], this compound came in with an IC50 of 730 nM. In addition, the results for the Activity entry in data set [7] and in data set [8] were “Toxic” and “tde”, respectively. The inhibition entry in data set [1] is “inactive”.
`CC(Cn1ncc2c(Nc3cccc(Cl)c3)ncnc21)c1ccccc1` (centres undefined): the inhibition result in data set [1] is “inactive”.
For the compound `CSc1nc(Nc2cccc(Cl)c2)c2cnn(CC(C)c3ccccc3)c2n1` (centres undefined), the Ki in data set [9] is 25 nM; in data set [14], “Not Active”; in [15], “Not Active”; in data set [10], 6600 nM; in data set [11], 5000 nM. Further, the Activity entry in data set [2] was “Dose-dependent effect”; in data set [7], “Toxic”; in data set [8] it was “tde”. In [6], the half-maximal inhibitory concentration (IC50) came to 330 nM. The inhibition result in data set [1] is “inactive”.
In turn, `CC(C)(C)n1nc(-c2ccc(Cl)cc2)c2c(N)ncnc21` gave an IC50 in data set [6] of 6100 nM.
